Test [1] concerns SW620 cells. Put plainly: Proliferation assay (Crystal Violet), SW620. The format is cell-based, human. The note with it: cilengitide added at day 1, measured day 1–5; concentration optimised per cell line, not given; three biological replicates. As to the method: (§1) Fig. 6. Integrin β5 promotes colorectal cancer cell proliferation. […] Cells were fixed after 3 days of treatment and β5 (green in merge) and vinculin (magenta) were visualized using confocal microscopy. Cell nuclei are shown in blue. Scale bars: 20 μm. (B) Cells were seeded on day 0 and proliferation was measured from day 1–5 in cells with or without cilengitide (added at day 1). (C,E) FACS plots showing the expression of β5 in SW620 (C) and HT29 (E) wild-type (WT) and β5 knockout cells. Cells stained with a secondary PE-conjugated antibody only were used as negative control (n=2). (D,F) Proliferation of SW620 and HT29 wild-type and β5 knockout cells. (G) Representative IF images showing integrin β5 (green in merge), vinculin (red), actin (blue), nuclei (cyan) in SW620 wild-type, β5-deficient, and cilengitide-treated cells that were cultured for 5 days on coverslips prior to fixation. Scale bars: 100 μm. (H,I) Proliferation of SW620 (H) and HT29 (I) wild-type and β5 knockout cells on 3.2 μg ml^−1 collagen. […]
(§2) Cells were seeded at a density of 5×10^4 cells per well in a 96-well plate and treated with cilengitide or DMSO, as indicated in the figure legend. […] Cells were air-dried overnight and lysed in 2% SDS, after which the OD value of Crystal Violet at 490 nm was determined using an Epoch microplate reader equipped with Gen5 software. […]

The subject of test [2] is SW620 cells. Kind of test: Cell growth morphology (immunofluorescence), SW620. The format is cell-based, human. The note with it: cilengitide-treated SW620 cells cultured for 5 days on coverslips; control cells mainly formed a 2D monolayer. As to the method: (§3) Fig. 6. Integrin β5 promotes colorectal cancer cell proliferation. […] Cells were fixed after 3 days of treatment and β5 (green in merge) and vinculin (magenta) were visualized using confocal microscopy. Cell nuclei are shown in blue. Scale bars: 20 μm. (B) Cells were seeded on day 0 and proliferation was measured from day 1–5 in cells with or without cilengitide (added at day 1). (C,E) FACS plots showing the expression of β5 in SW620 (C) and HT29 (E) wild-type (WT) and β5 knockout cells. Cells stained with a secondary PE-conjugated antibody only were used as negative control (n=2). (D,F) Proliferation of SW620 and HT29 wild-type and β5 knockout cells. (G) Representative IF images showing integrin β5 (green in merge), vinculin (red), actin (blue), nuclei (cyan) in SW620 wild-type, β5-deficient, and cilengitide-treated cells that were cultured for 5 days on coverslips prior to fixation. Scale bars: 100 μm. (H,I) Proliferation of SW620 (H) and HT29 (I) wild-type and β5 knockout cells on 3.2 μg ml^−1 collagen. Results shown represent mean±s.d. of three biological replicates, of which each experiment was performed in triplicate. *P<0.05 (two-sided unpaired Student's t-test).
(§4) PA-JEB/β4 keratinocytes were seeded on glass coverslips and cultured in complete KGM medium for 24 h, and then treated with DMEM plus 10% FCS for 24 h. […]

For test [3], the system named is integrin αVβ3/αVβ5. The settings on record: stated as known, no reference given; cited from earlier work. An excerpt: The integrin β5 plays a role in breast cancer and osteosarcoma cell proliferation ([Bianchi-Smiraglia et al., 2013]; [Lock et al., 2018]). Here, we analyzed the role of integrin β5 in cell proliferation of SW620, HT29 and SW480 colorectal cancer cells, in which β5 localizes predominantly in FCLs, FAs or is distributed equally in both adhesions, respectively. Because none of these cell lines express the integrin β3 subunit (Fig. S5A), we used the integrin αVβ3/αVβ5 antagonist cilengitide as a tool to inhibit αVβ5 function. The optimal concentration for inhibition was determined for each cell li ...

The subject of test [4] is integrin β5 clustering in SW620, HT29 and SW480 cells. Kind of test: Inhibition of β5 clustering (confocal microscopy). The format is cell-based, human. The note with it: cells fixed after 3 days of cilengitide treatment. As to the method: as §3, §4
Test [5] deals with SW480 cells. Kind of test: Proliferation assay (Crystal Violet), SW480. The format is cell-based, human. The note with it: cilengitide added at day 1, measured day 1–5; concentration optimised per cell line, not given; three biological replicates. As to the method: as §1, §2
For test [6], the system named is HT29 cells. Kind of test: Proliferation assay (Crystal Violet), HT29. The format is cell-based, human. The note with it: cilengitide added at day 1, measured day 1–5; concentration optimised per cell line, not given; three biological replicates. As to the method:
as §1, §2

In the case of “cilengitide (RGDFV; chains of the INN, looked up) [integrin αVβ3/αVβ5 antagonist]”, the “proliferation, SW620” value in test [1] was “significant decrease in proliferation”. Further, the growth phenotype result in test [2] is listed as “grew on top of each other”. The “integrin αVβ3/αVβ5 antagonism” value in test [3] is given as “antagonist”. The “inhibition of β5 clustering” value in test [4] is “Inhibition of β5 clustering”. Besides, the “proliferation, SW480” value in test [5] is listed as “significant decrease in proliferation”. The “proliferation, HT29” value in test [6] is listed as “significant decrease in proliferation”.

These data come from article PMC9234671, “Molecular determinants of αVβ5 localization in flat clathrin lattices – role of αVβ5 in cell adhesion and proliferation” (Journal of Cell Science, 2022).
